Source: patent US20030186423A1, “Amidase from variovorax” (Degussa AG, priority 2001, published 2003)

Legend:
[1] = test system: D-amidase; assay: Enzyme test for acid amides, activity by determination of ammonium ions with glutamate dehydrogenase; type: biochemical, Variovorax paradoxus; details: for Activity with respect to Tle-NH2: DL-Tle-NH2 = 1; for Relative act.: partly purified D-amidase after the 2nd chromatography step (0.51 U/mg)
Experimental: The activity was measured by determination of the ammonium ions with glutamate dehydrogenase (Bergmeyer, H. U., and Beutler, H.-O. (1985), Ammonia. In: Methods of Enzymatic Analysis. VCH-Verlag, 3rd edition, vol. 8: 454-461, Weinheim). […] The substrates were employed in the enzyme test at 40 mM, except for succinic acid diamide and adipic acid diamide, each at 10 mM, and benzylamide at 20 mM. Since the activities were determined only at in each case one substrate concentration, relative activities are stated.
(§1) In the conversion of tert-leucinamide (gen. acid amides) by the D-amidase, the formation of ammonia or ammonium ions and tert-leucine (gen. acid) in equimolar amounts occurs. […] The change in concentration of the components participating can be measured in an enzyme test, which comprises incubation of the following test batch for 10-60 minutes at 30° C.
(§2) The enzyme test was started by addition of the substrate and the reaction was stopped by heating at 95° C. for three minutes. The analysis of the reaction products was carried out for ammonium ions by enzymatic determination of ammonium by glutamate dehydrogenase (Bergmeyer, H.,U., and Beutler, H.-O. (1985) Ammonia. In: Methods of Enzymatic Analysis. VCH-Verlag, 3rd edition, vol. 8: 454-461, Weinheim) and for D- and L-tert-leucine by means of HPLC (Bruckner, H., Wittner R., and Godel H., (1991) Fully automated high-performance liquid chromatographic separation of DL-amino acids derivatized with o-phthaldialdehyde together with N-isopropyl-cysteine. Application to food samples. Anal. Biochem. 144(1): 204-206). Batches to which no substrate were added served as controls.
The enzyme glutamate dehydrogenase (GluDH; E.C.1.4.1.3) converts 2-oxoglutarate into L-glutamate, ammonium ions being consumed and NADH being oxidized to NAD+(Bergmeyer, H.,U. and Beutler, H.-O. (1985), Ammonia. In: Methods of Enzymatic Analysis. VCH-Verlag, 3rd edition, vol. 8: 454-461, Weinheim). The amount of NADH consumed during the reaction is equivalent to the amount of ammonium ions. The change in the concentration of NADH is the measurement parameter and can be determined spectrophotometrically at a wavelength of 340 nm.
The test components were pipetted into cells of plastic (1.5 ml semimicro disposable cells, Brand) and mixed and the extinction at 340 nm was determined after 5 min. 10 μl GluDH were then added, and after the reaction had gone to completion, as a rule after 30 min, the extinction was measured again.

[2] = test system: D-amidase; assay: Enzyme test for amino acid amides and α-hydroxycarboxylic acid amides (HPLC or NH4+ determination); type: biochemical, Variovorax paradoxus; details: for Rel. activity with respect to D and L: activity for the lower enantiomer set at 1; for Activity with respect to Tle-NH2 / Specific activity: substrate 40 mM; for Activity with respect to Tle-NH2: DL-Tle-NH2 = 1; for Specific activity: partly purified D-amidase after the 2nd chromatography step (0.56 U/mg), Pro-, Lac-, MHA-NH2 by NH4+ determination
Experimental: For prolinamide, and the α-hydroxycarboxylic acid amides lactic acid amide (Lac-NH2) and 2-hydroxy-4-methylmercaptobutyric acid amid (MHA-NH2), the methionine-analogous α-hydroxycarboxylic acid amide, determination of the product with the previous HPLC analysis is not possible. For these substrates, the activity was determined with the aid of NH4^+ determination. […] All the substrates were employed in the enzyme test at 40 mM. In the 4th column, for further comparison the activity for the lower enantiomer has been set at 1 and a relative activity for the preferred enantiomer has been calculated therefrom.
as §1, §2
The separation and quantitative determination of the enantiomers D- and L-tert-leucine were carried out by a “chiral derivatization” on the basis of o-phthaldialdehyde (OPA)/N-isobutyryl-L-cysteine or N-isobutyryl-D-cysteine (Brückner, H.; Wittner R. and Godel H. (1991), Fully automated high-performance liquid chromatographic separation of DL-amino acids derivatized with o-Phthaldialdehyde together with N-isopropyl-cysteine. Application to food samples. Anal. Biochem. 144, 204-206). The diastereomeric isoindole derivatives formed were separated on an RP-18 (reversed phase) column and detected by fluorescence. A two-buffer system of aqueous acetate buffer and an acetonitrile/water mixture was used as the mobile phase.

Compound	Rel. activity with respect to D and L [2]	Activity with respect to Tle-NH2 [2]	Specific activity [2] [U/mg]	also measured
CC(C)C(N)=O [Isobutyramide]	–	–	–	Activity with respect to Tle-NH2 ([1]; substrate 40 mM): 33; Relative act. ([1]; substrate 40 mM): 15 U/mg
C[C@H](N)C(N)=O [L-Ala-NH2]	1	15	7.7	–
CC[C@H](C)[C@H](N)C(N)=O [L-Ile-NH2]	–	0.35	0.17	–
CC(O)C(N)=O [L-Lac-NH2, lactic acid amide]	1.1	66	33	–
CC(C)C[C@H](N)C(N)=O [L-Leu-NH2]	1	26	15	–
CSCC[C@H](N)C(N)=O [L-Met-NH2]	1	86	48	–
NC(=O)[C@@H](N)Cc1ccccc1 [L-Phe-NH2]	1	190	110	–
NC(=O)[C@@H]1CCCN1 [L-Pro-NH2, prolinamide]	2.3	56	28	–
NC(=O)[C@@H](N)Cc1c[nH]c2ccccc12 [L-Trp-NH2]	1	62	34	–
NC(=O)[C@@H](N)Cc1ccc(O)cc1 [L-Tyr-NH2]	–	100	47	–
CC(C)[C@H](N)C(N)=O [L-Val-NH2]	1	1.2	0.59	–
NC(=O)CC(N)=O [Malonic acid diamide]	–	–	–	Activity with respect to Tle-NH2 ([1]; substrate 40 mM): 2.9; Relative act. ([1]; substrate 40 mM): 1.5 U/mg
NC(=O)c1cccnc1 [Nicotinamide]	–	–	–	Activity with respect to Tle-NH2 ([1]; substrate 40 mM): 19; Relative act. ([1]; substrate 40 mM): 8.5 U/mg
CCC(N)=O [Propionamide]	–	–	–	Activity with respect to Tle-NH2 ([1]; substrate 40 mM): 26; Relative act. ([1]; substrate 40 mM): 12 U/mg
NC(=O)CCC(N)=O [Succinic acid diamide]	–	–	–	Activity with respect to Tle-NH2 ([1]; substrate 10 mM): 2.1; Relative act. ([1]; substrate 10 mM): 1.1 U/mg
CCCCC(N)=O [Valeric acid amide]	–	–	–	Activity with respect to Tle-NH2 ([1]; substrate 40 mM): 36; Relative act. ([1]; substrate 40 mM): 16 U/mg
Benzylamide	–	–	–	Activity with respect to Tle-NH2 ([1]; substrate 20 mM): 5.2; Relative act. ([1]; substrate 20 mM): 2.6 U/mg
